Assay results taken from PMC8356907 (Current analytical chemistry, 2021).
Square brackets hold non-standard residues; d marks the D form.

Assays:
[1] = molecular target: human integrin αvβ3 purified protein (Homo sapiens, UniProt P05106+P06756); experiment: Solid-phase RGD receptor-binding assay
A549 cells = experiment: Live cell NIR fluorescence microscopy; type: cell-based, human; conditions: 100 μM inhibitor, paclitaxel-treated A549 cells, 4 h
[2] = molecular target: T1, recombinant human caspase 3 (Homo sapiens, UniProt P42574); conditions: cited from earlier work; for kcat: standard fluorogenic substrates; for Km: standard substrates
T1 sequence (P42574 29-175 limits assumed): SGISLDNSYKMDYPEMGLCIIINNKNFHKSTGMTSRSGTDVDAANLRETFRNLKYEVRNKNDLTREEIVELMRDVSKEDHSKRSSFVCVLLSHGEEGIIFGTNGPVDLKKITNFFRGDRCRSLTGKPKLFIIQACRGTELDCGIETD
T1 sequence (P42574 176-277 limits assumed): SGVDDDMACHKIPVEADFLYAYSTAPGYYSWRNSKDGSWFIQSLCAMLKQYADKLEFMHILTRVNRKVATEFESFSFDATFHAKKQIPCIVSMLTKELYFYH

[3] = molecular target: human integrin αvβ3 purified protein (human, UniProt P06756 31-1048; P05106 27-788); experiment: radioligand binding
[4] = molecular target: T2, human integrin αvβ3 purified protein (human), P06756; experiment: radioligand binding; conditions: remark: other sources report otherwise
T2 chain 1: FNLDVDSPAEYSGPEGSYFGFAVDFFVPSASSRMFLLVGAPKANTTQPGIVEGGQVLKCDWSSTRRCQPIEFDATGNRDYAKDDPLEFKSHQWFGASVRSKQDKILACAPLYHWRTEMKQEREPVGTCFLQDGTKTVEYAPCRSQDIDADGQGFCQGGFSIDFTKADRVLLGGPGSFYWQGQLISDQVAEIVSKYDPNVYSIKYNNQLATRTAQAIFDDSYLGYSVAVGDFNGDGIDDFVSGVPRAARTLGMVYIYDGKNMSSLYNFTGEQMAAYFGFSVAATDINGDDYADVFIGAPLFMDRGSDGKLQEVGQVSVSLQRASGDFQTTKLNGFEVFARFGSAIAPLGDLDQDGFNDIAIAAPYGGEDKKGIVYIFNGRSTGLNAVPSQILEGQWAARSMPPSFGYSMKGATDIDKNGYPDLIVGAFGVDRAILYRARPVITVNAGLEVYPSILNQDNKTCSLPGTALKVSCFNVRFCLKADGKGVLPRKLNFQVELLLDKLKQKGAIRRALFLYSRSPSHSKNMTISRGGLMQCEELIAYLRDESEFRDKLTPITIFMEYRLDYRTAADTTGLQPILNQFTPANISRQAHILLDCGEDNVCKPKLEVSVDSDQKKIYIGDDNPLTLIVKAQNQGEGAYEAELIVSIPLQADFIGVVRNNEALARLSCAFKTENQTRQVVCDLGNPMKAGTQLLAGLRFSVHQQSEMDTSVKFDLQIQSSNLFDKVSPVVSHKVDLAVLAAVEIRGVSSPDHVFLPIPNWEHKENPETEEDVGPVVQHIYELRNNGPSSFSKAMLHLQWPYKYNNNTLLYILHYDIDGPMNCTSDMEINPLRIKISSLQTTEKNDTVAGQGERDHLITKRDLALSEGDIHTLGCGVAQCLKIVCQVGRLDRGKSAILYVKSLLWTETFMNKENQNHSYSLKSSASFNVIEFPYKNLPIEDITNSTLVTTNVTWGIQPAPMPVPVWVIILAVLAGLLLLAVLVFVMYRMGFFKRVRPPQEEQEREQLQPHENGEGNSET
T2 chain 2: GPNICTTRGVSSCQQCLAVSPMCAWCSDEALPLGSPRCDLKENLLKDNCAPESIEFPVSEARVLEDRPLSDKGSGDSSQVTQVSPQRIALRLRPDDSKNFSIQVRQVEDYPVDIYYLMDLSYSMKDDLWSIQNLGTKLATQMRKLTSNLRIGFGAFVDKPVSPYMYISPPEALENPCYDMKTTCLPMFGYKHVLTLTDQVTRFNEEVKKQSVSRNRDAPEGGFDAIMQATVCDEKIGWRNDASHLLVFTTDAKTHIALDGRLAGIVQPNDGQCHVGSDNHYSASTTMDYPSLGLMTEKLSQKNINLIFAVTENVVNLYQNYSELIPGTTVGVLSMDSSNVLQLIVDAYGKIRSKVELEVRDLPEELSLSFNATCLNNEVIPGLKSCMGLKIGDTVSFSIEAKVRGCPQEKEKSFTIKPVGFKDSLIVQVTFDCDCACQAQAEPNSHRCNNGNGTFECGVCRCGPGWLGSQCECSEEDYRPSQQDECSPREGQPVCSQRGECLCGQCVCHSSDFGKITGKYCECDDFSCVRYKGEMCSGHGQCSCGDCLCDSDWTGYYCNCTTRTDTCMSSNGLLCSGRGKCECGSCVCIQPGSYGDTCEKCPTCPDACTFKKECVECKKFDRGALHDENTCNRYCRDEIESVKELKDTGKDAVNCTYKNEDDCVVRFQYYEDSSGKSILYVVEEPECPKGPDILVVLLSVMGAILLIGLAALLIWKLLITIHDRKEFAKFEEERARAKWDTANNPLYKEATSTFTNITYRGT

With cypate-octreotate the “decrease in the binding affinity” value ([1]; non-RGD peptide control) was > 100 fold.

For Z-Asp(Ome)-Glu(Ome)-Val-Asp(OMe)-FMK, the “effect of caspase-3 inhibitor on LS422 fluorescence activation” value (A549 cells) was “inability to activate the LS422 fluorescence”.

With Cypate-c(RGDfK) [LS167] the Ki ([1]; read-out: Ki (nM ± s.d.), corrected Ki, modified Cheng-Prusoff equation, 125I-c(RGDyK) tracer) was 1.62 ± 0.491 nM.

In the case of Ac-DEVD-AMC, the kcat [2] is listed as 0.75 s⁻¹ and the Km [2] is listed as 9.7 µM.

In the case of Ac-DEVD-pNA, the kcat [2] is listed as 2.4 s⁻¹ and the Km [2] is listed as 11 µM.

Work on cyclo(RGD[dY]K) (also: 125I label, site not given here) [125I-c(RGDyK)] yielded a Kd [3] of 0.4 nM.

Molecule cyclo(RGD[dF]K) (also: cypate label, position not given here) [LS167 (Cypate-c(RGDfK))] has a Ki [4] of 1.62 nM.
